Laboratory results taken from patent US20130260376A1, “Prediction of and Monitoring Cancer Therapy Response Based on Gene Expression Profiling” (WHITEHEAD INSTITUTE FOR BIOMEDICAL RESEARCH, priority 2010, published 2013).

Tested on: HMLER breast cancer populations
Test: Microarray gene expression / Gene Set Enrichment Analysis of HMLER cells after drug treatment versus DMSO control
Type: cell-based
Details: relative to DMSO control, GSEA; for collective expression level of the genes in Table 1 (EMT-associated genes) and subsets thereof upon treatment: FIGS. 2 and 5; for collective expression level of the genes in Table 2 (non-EMT-associated genes) and subsets thereof upon treatment: FIGS. 3 and 4
Description: The collective expression levels of the genes in Tables 1 and 2 after paclitaxel treatment were then determined. For these analyses, which are shown in FIGS. 2 and 3, collections of gene subsets of various sizes were chosen.
Next, identical analyses as those described above were performed in the context of treatment with a different anti-cancer agent—salinomycin—that was previously identified as specifically killing invasive cancer stem cells. The opposite expression change (relative to paclitaxel) was observed upon treatment with salinomycin. […] As a consequence, measurement of the expression of the genes in Table 1 (or any appropriate subsets thereof identified according to the methods disclosed herein) would serve to identify tumors that would be responsive to a CSS agent (e.g., salinomycin treatment) when applied as a single agent.

Row | SMILES | collective expression level of the genes in Table 1 (EMT-associated genes) and subsets thereof upon treatment | collective expression level of the genes in Table 2 (non-EMT-associated genes) and subsets thereof upon treatment
1 | CC(=O)O[C@H]1C(=O)[C@@]2(C)[C@H]([C@H](OC(=O)c3ccccc3)[C@]3(O)C[C@H](OC(=O)[C@H](O)[C@@H](NC(=O)c4ccccc4)c4ccccc4)C(C)=C1C3(C)C)[C@]1(OC(C)=O)CO[C@@H]1C[C@@H]2O [paclitaxel] | over-expressed | under-expressed
2 | CC[C@@H](C(=O)[C@@H](C)[C@@H](O)[C@H](C)[C@@H]1O[C@@H]([C@@H](CC)C(=O)O)CC[C@@H]1C)[C@H]1O[C@]2(C=C[C@@H](O)[C@]3(CC[C@@](C)([C@H]4CC[C@](O)(CC)[C@H](C)O4)O3)O2)[C@H](C)C[C@@H]1C [salinomycin] | under-expressed | over-expressed
